Reference: patent US9371301B2, “Prenylarene compound and use thereof” (Osaka University, priority 2010, dated 2016)
“Also recorded” adds a separate entry of the source.

Assays:
[1] = test system: human prostate cancer DU145 cells; test: Inhibitory activity on normoxic cell growth (MTT); type: cell-based; conditions: for inhibitory activity on normoxic cell growth as compared with furospinosulin-1: in a high dose; for inhibitory activity on normoxic cell growth as compared with furospinosulin-1 / inhibitory activity on normoxic cell growth: DU145
Experimental: (§1) Analog-k5, which is represented by formula (II), and analog-k6, which is represented by formula (III), were used as test compounds and furospinosulin-1 was used as the control compound. The test compounds and the control compound were separately dissolved in EtOH, and the respective solutions were prepared at predetermined concentrations. The cells used were human prostate cancer DU145 cells. Analog-k6 was synthesized according to the method described in Example 1 for synthesis of analog-k5 except for using 3-bromothiophene instead of 3-bromofuran.
Meanwhile, the inhibitory activity of the test compounds on normoxic cell growth was measured in the following manner. To each well of 96-well multiwell plates, 200 μL (1×10^4 cells/well) of a DU145 cell suspension was added, and culture was performed under conditions of 5% CO2 and 37° C. for 12 hours. Then, the test compound solutions in EtOH were added to the corresponding wells in a volume of 2 μL per well, and culture was further continued under the same conditions for 24 hours. After 24 hours of culture, as is the case in hypoxic conditions, the MTT reagent was added and finally the ratio of growth inhibition was calculated.
(§2) Analog-f9, which is represented by formula (VI), and analog-k13, which is represented by formula (CI), were used as the test compounds, and both were evaluated for the selective inhibitory activity on hypoxic cancer cell growth according to the same method as described in Example 5.

[2] = test system: Mouse sarcoma S180 cells; test: Antitumor activity in mouse cancer cell transplant model; type: in vivo; conditions: ddY mice; for tumor weight, % of that of the control group / weight loss, diarrhea, visual abnormalities in organs: once every two days, 7 times; for tumor weight, % of that of the control group: S180; for weight loss, diarrhea, visual abnormalities in organs: all dose groups; for weight loss, diarrhea, visual abnormalities in organs / antitumor activity: oral; for antitumor activity: S180 transplant model
Experimental: A suspension of the test compound analog-k5 was prepared at predetermined concentrations in 1% CMC. The vehicle (1% CMC) was administered to the control group.
Mouse sarcoma S180 cells were prepared as a suspension of the density of 1×10^7 cells/mL in a serum-free RPMI culture medium and the suspension was kept on ice. Then, 100 μL (1×10^6 cells) each of the cell suspension was subcutaneously inoculated to the ventral side in female ddY mice (5-week old, six mice/group) with an injection needle of 23G. The mice were maintained for one week for engraftment of the […]. The test compound (10 mg/kg, 25 mg/kg and 50 mg/kg) or the vehicle (1% CMC) was orally administered on a schedule of once every two days, 7 times in total. The antitumor activity was evaluated as follows: one day after the final administration, tumors were isolated and weighed and then the tumor weight was compared between the test compound administration groups and the control group. Significance analysis was performed using a Dunnett's test at a significance level of 5%.
Analog-f9, which is represented by formula (VI), and analog-k13, which is represented by formula (CI), were used as the test compounds, and both were evaluated for the antitumor activity in a mouse cancer cell transplant model according to the same method as described in Example 6. However, the number of mice per group was changed to four, and the doses of test compounds were changed to 3 mg/kg, 10 mg/kg and 25 mg/kg.

[3] = test system: human prostate cancer DU145 cells; test: Selective inhibitory activity on hypoxic cancer cell growth (MTT, hypoxic conditions 1% O2); type: cell-based; conditions: for selective inhibitory activity on hypoxic cell growth: 24 h, MTT
Experimental: as §1
To each well of 96-well multiwell plates, 200 μL (1×10^4 cells/well) of a DU145 cell suspension was added, and preculture was performed under conditions of 5% CO2 and 37° C. for 4 hours. Then, the multiwell plates were placed in a hypoxic culture chamber (manufactured by Mitsubishi Gas Chemical Company, Inc.) of 1% O2, 5% CO2 and 94% N2 (hypoxic conditions) and culture was performed for 12 hours. Then, the test compound solutions in EtOH were added to the corresponding wells in a volume of 2 μL per well, and culture was further continued under hypoxic conditions for 24 hours. After 24 hours of culture, MTT (3-(4,5-dimethylthiazol-2-yl)-2,5-diphenyltetrazolium bromide) reagent prepared at 200 μg/mL was added in a volume of 50 μL per well, and culture was performed under conditions of 5% CO2 and 37° C. for 3 hours. Next, after removal of the culture medium, the resulting MTT formazan was extracted with 200 μL of DMSO per well. The amount of the formazan dye was quantified by a colorimetric method (OD 560 nm) and the ratio of growth inhibition was calculated.
as §2

[4] = test system: Mouse sarcoma S180 cells; conditions: mice subcutaneously inoculated with S180 cells; Non Patent Literature 4; cited from earlier work
[5] = test system: insulin-like growth factor 2 (IGF-2); conditions: mechanism of action; Non Patent Literature 4; cited from earlier work
[6] = test system: human prostate cancer DU145 cells; conditions: Non Patent Literature 4; cited from earlier work
[7] = at 1000 μM, DU145, hypoxic (1% O2) vs normoxic

Compound | inhibitory activity on normoxic cell growth as compared with furospinosulin-1 [1] | tumor weight, % of that of the control group ([2]; 10 mg/kg oral) | tumor weight, % of that of the control group ([2]; 25 mg/kg oral) | tumor weight, % of that of the control group ([2]; 50 mg/kg oral) | weight loss, diarrhea, visual abnormalities in organs [2] | antitumor activity [2] | selective inhibitory activity on hypoxic cell growth [3, 7] | tumor weight, % of that of the control group ([2]; 3 mg/kg oral) | selective inhibition of hypoxic cell growth compared with furospinosulin-1 ([3]; entire range of tested concentrations, DU145) | inhibitory activity on normoxic cell growth ([1]; concentrations of 10 μM or lower) | inhibitory activity on normoxic cell growth ([1]; concentrations of 100 μM or lower) | growth inhibitory activity against normoxic cells ([1]; at 1000 μM, DU145, 24 h, MTT) | in vivo tumor weight as compared with the control [4] | hypoxia-inducible expression of IGF-2 [5] | selective inhibitory activity on hypoxic cell growth ([3]; concentrations of 300 μM or lower, DU145, hypoxic vs normoxic) | in vitro cancer cell growth inhibition, hypoxia selectivity [6]
CC(C)=CCC/C(C)=C/CC/C(C)=C/CC/C=C/CCc1ccoc1 [analog-k5] | lower inhibitory activity on normoxic cell growth | 70% | 41% | 28% | In no administration groups, weight loss or diarrhea, or visual abnormalities in organs of the mice were observed | showed marked antitumor activity | showed selective inhibitory activity on hypoxic cell growth | – | – | – | – | – | – | – | – | –
C#CCC/C(C)=C/CC/C(C)=C/CC/C(C)=C/CC/C(C)=C/CCc1ccoc1 [analog-k13] | lower inhibitory activity on normoxic cell growth | 41% | 28% | – | In no administration groups, regardless of the kind of test compound, weight loss or diarrhea, or visual abnormalities in organs of the mice were observed | showed marked antitumor activity | showed selective inhibitory activity on hypoxic cell growth | 70% | stronger than that of furospinosulin-1 | – | – | – | – | – | – | –
CC(C)=CCC/C(C)=C/CC/C(C)=C/CC/C(C)=C/CC/C(C)=C/CCc1ccsc1 [analog-f9] | lower inhibitory activity on normoxic cell growth | 29% | 18% | – | In no administration groups, regardless of the kind of test compound, weight loss or diarrhea, or visual abnormalities in organs of the mice were observed | – | showed selective inhibitory activity on hypoxic cell growth | – | – | hardly inhibits normoxic cell growth | remarkably low inhibitory activity on normoxic cell growth | – | – | – | – | –
CC(C)=CCC/C(C)=C/CC/C(C)=C/CC/C(C)=C/CCc1ccoc1 [furospinosulin-1, reference compound] | – | – | – | – | – | – | equal growth inhibitory activity against normoxic cells and hypoxic cells; also recorded: not selective for hypoxic cells | – | – | – | – | showed growth inhibitory activity even against normoxic cells | significantly reduces in vivo tumor weight | inhibition of hypoxia-inducible expression of insulin-like growth factor 2 (IGF-2) | showed selective inhibitory activity on hypoxic cell growth | inhibits in vitro cancer cell growth in a hypoxia-selective manner
CC(C)=CCC/C(C)=C/CC/C(C)=C/CC/C=C/CCc1ccsc1 [analog-k6] | lower inhibitory activity on normoxic cell growth | – | – | – | – | – | showed selective inhibitory activity on hypoxic cell growth | – | – | – | – | – | – | – | – | –
